Results: patent US10633364B2, “Crystals of quinazoline derivative and preparation method therefor” (Xuanzhu Pharma Co., Ltd., priority 2015, dated 2020)
Values after ≈ are worked out from the molar mass of the structure shown. Read-outs that look alike come from different tables or passages of the source.

Columns and labels:
[1] = target: EGFR (Homo sapiens, UniProt P00533); conditions: disclosed in WO2012027960A1; cited from earlier work
[2] = target: HER2 (Homo sapiens, UniProt P04626); conditions: disclosed in WO2012027960A1; cited from earlier work
[3] = target: HER4 (Homo sapiens, UniProt Q15303); conditions: disclosed in WO2012027960A1; cited from earlier work
[4] = tested on: erlotinib-resistant H1975 cell line; conditions: cited from earlier work
[5] = Pharmacokinetics of different forms in beagle dogs; type: in vivo; conditions: capsule, 3 mg/kg
Description: Animal subject: beagle dogs, male, weighed 8˜14 kg, 3 dogs/crystal form. Beagle dogs were purchased from Beijing Marshall Biotechnology Co. Ltd.
Administration: three test samples were prepared into capsules, at an administration dose of 3 mg/kg according to body weight of dog.
About 37.3 mg of an amorphous compound was weighed, and packaged into hollow capsules (three capsules in total, one capsule per dog).
Blood was collected 10 min, 30 min, 1 h, 2 h, 4 h, 6 h, 8 h, and 24 h after administration. Before blood collection, the animals were fixed, and whole blood (about 400 μL) was collected from vein of forelimb at each time point, and added to K2EDTA-containing anticoagulation tubes. The whole blood sample was centrifuged for 6 min at 4° C., 8000 rpm in a high speed centrifuge, and plasma was separated. Plasma needed to be prepared within 30 min after blood collection, and plasma was stored at −80° C. in a refrigerator.
The plasma samples were analyzed by protein precipitation: to plasma (50 μL), an internal standard Afatinib dimaleate (200 μL, 50 ng/mL acetonitrile solution) was added; the resultant mixture was vortexed at 1500 rpm for 3 min, and centrifuged at 12000 rpm for 5 min; to the supernatant (100 μL), water (100 μL) was added; the resultant mixture was mixed homogeneously under vortexing and analyzed by LC-MS/MS for blood concentration.
PK parameters were calculated by using Pharsight Phoenix 6.2 software.

[6] = Soluble property test in water; type: physicochemical
Description: (1) Soluble property test: to a test sample, adding a corresponding solvent dropwise in a small amount for several times, shaking in a 25° C. thermostat water bath until the sample was completely dissolved, and calculating the dissolved concentration, i.e., soluble property.

[7] = Solubility test (saturated solubility) in water; type: physicochemical
Text: (2) Solubility test: to a suitable volume of water, adding a test sample until oversaturation occurred in the solution of the sample, vortexing, centrifuging, filtrating the supernatant and then diluting it to a suitable concentration, subjecting the sample to a liquid chromatographic instrument, and determining the saturated concentration of the sample (i.e., saturated solubility) by external standard method.

[8] = Stability of Crystal form II under influencing factor condition; type: physicochemical
Description: Test samples in culture dishes were left uncovered. The test samples, which were kept under influencing factor conditions (a high temperature of 60° C., 25° C.-high moisture RH 75%, and 25° C.-high moisture RH 92.5%, under the condition of light) for 5 days and 10 days, were studied for stability; and the test samples which were kept at 40° C. for 5 days, 10 days and 30 days, and the test samples which were kept at 25° C. for 30 days and 90 days, were studied for stability. Samples were separately taken at specified time points, and the items (moisture content (Coulomb), relevant substances, XRPD) were studied. In accordance with High Performance Liquid Chromatography in Appendix V D in Pharmacopoeia of the People's Republic of China (2010), samples were determined by area normalization method. The moisture content was determined in accordance with First Method for Determining Moisture Content B (Coulometric Titration) in Appendix VIII M in Pharmacopoeia of the People's Republic of China (2010).

[9] = Stability of Crystal form I under influencing factor condition (high temperature of 60° C.); type: physicochemical
Description: A test sample was kept under influencing factor condition (a high temperature of 60° C.) for 30 d. Samples were separately taken at specified time points, and compared with the sample at Day 0. XRPD, relevant substances, contents, character, acidity, moisture content, and the like were determined. During the study, samples were packaged with plastic bags and sealed with aluminum foil outside.
(§1) In accordance with High Performance Liquid Chromatography in Appendix V D in Pharmacopoeia of the People's Republic of China (2010), samples at Day 0 were used as control samples, and samples were determined by external standard method.
(§2) In accordance with High Performance Liquid Chromatography in Appendix V D in Pharmacopoeia of the People's Republic of China (2010), samples were determined by area normalization method.
(§3) The moisture content was determined in accordance with First Method for Determining Moisture Content B (Coulometric Titration) in Appendix VIII M in Pharmacopoeia of the People's Republic of China (2010).

[10] = Stability of Crystal form I under accelerated condition and long-term condition; type: physicochemical
Description: Test samples were kept under accelerated condition (40° C.+RH 75%) for 6 months. Samples were separately taken at specified time points. XRPD, character, relevant substances, content, acidity, moisture content and the like were studied.
Test samples were kept under long-term condition (25° C.) for 6 months. Samples were separately taken at specified time points. Important items of stability (relevant substances) were studied.
At the last time point of the accelerated condition and long-term condition, XRPD, character, relevant substances, content, pH, moisture content and the like were studied.
as §1, §2, §3

[11] = as above; type: physicochemical; conditions: 30° C. 1 month
[12] = RH75% 5 days, 25° C., uncovered
[13] = RH75% 10 days, 25° C., uncovered
[14] = RH92.5% 5 days, 25° C., uncovered
[15] = RH92.5% 10 days, 25° C., uncovered

Chain of HER4 (Q15303 26-1308): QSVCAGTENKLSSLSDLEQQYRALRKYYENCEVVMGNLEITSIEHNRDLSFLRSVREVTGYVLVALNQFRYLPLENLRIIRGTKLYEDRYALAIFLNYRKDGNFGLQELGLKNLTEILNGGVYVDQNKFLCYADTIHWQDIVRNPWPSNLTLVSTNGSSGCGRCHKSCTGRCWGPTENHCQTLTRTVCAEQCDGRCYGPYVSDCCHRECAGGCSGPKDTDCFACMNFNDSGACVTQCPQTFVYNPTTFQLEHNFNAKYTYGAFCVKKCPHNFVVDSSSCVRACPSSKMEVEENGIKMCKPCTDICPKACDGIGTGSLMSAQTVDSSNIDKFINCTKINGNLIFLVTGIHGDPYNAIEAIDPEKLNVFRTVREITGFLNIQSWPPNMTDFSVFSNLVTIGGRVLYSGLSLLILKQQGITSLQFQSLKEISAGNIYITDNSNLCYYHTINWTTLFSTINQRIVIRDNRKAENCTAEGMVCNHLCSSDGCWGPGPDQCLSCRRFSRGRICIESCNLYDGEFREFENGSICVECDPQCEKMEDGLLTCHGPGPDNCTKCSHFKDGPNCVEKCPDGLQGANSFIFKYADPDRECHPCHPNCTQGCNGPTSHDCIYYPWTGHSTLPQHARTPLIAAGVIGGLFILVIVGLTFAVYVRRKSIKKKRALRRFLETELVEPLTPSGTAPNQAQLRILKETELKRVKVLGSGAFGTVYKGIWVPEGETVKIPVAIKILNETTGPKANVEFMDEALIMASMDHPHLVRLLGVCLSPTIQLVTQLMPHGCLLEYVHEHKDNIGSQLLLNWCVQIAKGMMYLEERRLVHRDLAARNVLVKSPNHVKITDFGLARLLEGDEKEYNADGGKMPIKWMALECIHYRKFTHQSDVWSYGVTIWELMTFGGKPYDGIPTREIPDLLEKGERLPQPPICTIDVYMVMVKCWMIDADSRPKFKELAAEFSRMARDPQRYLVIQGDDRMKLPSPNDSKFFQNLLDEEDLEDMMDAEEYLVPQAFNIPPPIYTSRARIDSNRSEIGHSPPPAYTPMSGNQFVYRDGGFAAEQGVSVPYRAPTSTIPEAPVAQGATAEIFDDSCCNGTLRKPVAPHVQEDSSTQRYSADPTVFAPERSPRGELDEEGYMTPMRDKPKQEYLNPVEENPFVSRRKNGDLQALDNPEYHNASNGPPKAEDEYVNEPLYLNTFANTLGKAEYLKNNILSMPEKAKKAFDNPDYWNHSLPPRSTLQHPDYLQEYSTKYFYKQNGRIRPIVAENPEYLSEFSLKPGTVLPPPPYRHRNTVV
Chain of HER2 (P04626 23-1255): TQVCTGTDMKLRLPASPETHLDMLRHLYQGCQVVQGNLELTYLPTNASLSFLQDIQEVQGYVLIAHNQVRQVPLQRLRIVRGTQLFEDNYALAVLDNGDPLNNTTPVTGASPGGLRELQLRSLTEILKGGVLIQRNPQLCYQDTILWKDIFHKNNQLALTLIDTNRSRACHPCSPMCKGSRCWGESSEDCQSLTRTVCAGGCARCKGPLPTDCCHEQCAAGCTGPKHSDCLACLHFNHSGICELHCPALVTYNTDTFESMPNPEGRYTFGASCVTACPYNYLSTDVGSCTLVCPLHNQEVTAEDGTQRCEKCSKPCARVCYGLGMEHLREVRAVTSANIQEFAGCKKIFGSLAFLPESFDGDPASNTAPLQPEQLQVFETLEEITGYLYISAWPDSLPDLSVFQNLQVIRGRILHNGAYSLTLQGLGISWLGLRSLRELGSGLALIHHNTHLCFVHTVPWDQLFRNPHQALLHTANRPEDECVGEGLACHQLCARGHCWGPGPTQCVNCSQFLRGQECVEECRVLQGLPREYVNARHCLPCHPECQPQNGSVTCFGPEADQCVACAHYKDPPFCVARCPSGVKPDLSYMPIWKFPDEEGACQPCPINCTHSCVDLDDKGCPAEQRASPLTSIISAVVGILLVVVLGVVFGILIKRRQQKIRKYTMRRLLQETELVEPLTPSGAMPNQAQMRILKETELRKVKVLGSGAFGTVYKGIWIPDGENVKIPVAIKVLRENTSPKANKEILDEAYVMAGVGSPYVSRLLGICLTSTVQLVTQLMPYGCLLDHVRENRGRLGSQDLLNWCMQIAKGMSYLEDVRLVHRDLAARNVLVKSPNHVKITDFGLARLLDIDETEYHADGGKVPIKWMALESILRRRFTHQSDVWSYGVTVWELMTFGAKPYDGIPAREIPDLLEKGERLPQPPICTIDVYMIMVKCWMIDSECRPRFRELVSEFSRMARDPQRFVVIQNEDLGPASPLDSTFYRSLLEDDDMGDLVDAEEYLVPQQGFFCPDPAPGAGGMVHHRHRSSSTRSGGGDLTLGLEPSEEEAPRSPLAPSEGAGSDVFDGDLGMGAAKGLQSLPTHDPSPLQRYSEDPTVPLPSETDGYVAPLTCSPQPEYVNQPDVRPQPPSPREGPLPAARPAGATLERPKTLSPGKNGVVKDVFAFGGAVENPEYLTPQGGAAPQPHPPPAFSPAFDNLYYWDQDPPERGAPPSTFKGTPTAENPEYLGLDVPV
Chain of EGFR (P00533 25-1210): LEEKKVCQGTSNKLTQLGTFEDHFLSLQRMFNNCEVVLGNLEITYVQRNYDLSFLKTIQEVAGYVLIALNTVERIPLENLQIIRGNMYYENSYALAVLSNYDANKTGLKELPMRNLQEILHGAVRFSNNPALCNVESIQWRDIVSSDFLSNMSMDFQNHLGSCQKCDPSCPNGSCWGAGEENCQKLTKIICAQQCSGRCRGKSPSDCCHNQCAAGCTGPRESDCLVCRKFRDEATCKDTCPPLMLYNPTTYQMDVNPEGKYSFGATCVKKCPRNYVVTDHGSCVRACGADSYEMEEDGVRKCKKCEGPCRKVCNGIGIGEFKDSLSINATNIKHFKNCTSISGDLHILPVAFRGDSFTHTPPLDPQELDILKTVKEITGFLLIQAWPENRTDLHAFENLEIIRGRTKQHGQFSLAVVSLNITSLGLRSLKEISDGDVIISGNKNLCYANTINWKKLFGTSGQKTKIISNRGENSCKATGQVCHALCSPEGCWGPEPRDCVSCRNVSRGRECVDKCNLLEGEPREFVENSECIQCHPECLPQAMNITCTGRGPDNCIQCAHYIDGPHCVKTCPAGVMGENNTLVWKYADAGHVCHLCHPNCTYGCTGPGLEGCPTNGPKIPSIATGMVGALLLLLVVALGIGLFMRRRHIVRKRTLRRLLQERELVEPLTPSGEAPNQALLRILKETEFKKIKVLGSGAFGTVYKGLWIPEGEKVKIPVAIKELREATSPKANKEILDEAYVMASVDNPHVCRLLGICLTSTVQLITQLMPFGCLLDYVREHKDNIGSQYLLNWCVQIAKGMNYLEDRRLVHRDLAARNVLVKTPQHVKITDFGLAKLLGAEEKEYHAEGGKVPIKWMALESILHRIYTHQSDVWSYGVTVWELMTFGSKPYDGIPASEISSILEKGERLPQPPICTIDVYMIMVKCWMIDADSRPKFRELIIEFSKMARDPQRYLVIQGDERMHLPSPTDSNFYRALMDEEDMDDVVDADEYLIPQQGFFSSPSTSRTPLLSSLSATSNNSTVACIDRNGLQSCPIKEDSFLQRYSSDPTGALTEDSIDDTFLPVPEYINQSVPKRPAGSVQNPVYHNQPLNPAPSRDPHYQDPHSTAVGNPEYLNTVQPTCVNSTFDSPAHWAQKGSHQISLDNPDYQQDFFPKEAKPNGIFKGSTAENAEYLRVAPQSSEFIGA

Q: With `C=CC(=O)Nc1cc2c(Nc3ccc(F)c(Cl)c3)ncnc2cc1OCC1CC2(CCN(C)CC2)C1` [Formula (I), N-(4-((3-chloro-4-fluorophenyl)amino)-7-((7-methyl-7-azaspiro[3.5]nonan-2-yl)methoxy)quinazolin-6-yl)acrylamide] as the compound, how does the “Inhibition of EGFR” value [1] read?
A: effectively inhibit EGFR

Q: And the “Inhibitory effect on HER2” value [2]?
A: inhibitory effect

Q: And the “Inhibitory effect on HER4” value [3]?
A: inhibitory effect

Q: What about the “Inhibitory effect on H1975 cell line” value [4] of the same compound?
A: significantly inhibitory effect

Q: For `C=CC(=O)Nc1cc2c(Nc3ccc(F)c(Cl)c3)ncnc2cc1OCC1CC2(CCN(C)CC2)C1` [Amorphous form, N-(4-((3-chloro-4-fluorophenyl)amino)-7-((7-methyl-7-azaspiro[3.5]nonan-2-yl)methoxy)quinazolin-6-yl)acrylamide], which AUC0-t [5] is on record?
A: 0.0686 µg·h/mL

Q: What about the AUCinf [5] of the same compound?
A: 0.0799 µg·h/mL

Q: And the Cmax [5]?
A: 0.0166 µg/mL

Q: And the T1/2 [5]?
A: 2.47 h

Q: What about the Tmax [5] of the same compound?
A: 2.00 h

Q: What does the source list for `C=CC(=O)Nc1cc2c(Nc3ccc(F)c(Cl)c3)ncnc2cc1OCC1CC2(CCN(C)CC2)C1` [Crystal form II, N-(4-((3-chloro-4-fluorophenyl)amino)-7-((7-methyl-7-azaspiro[3.5]nonan-2-yl)methoxy)quinazolin-6-yl)acrylamide]?
A: Soluble property ([6]; 25° C.): property: 23.23) mg/mL; Soluble property (descriptive term) ([6]; 25° C.): slightly soluble, (soluble; Solubility (saturated solubility) [7]: solubility: 28.94 mg/mL; AUC0-t [5]: 0.11 µg·h/mL; AUCinf [5]: 0.111 µg·h/mL; Cmax [5]: 0.0146 µg/mL; T1/2 [5]: 3.98 h; Tmax [5]: 2.00 h; Moisture content ([8]; 0 day): 13.1%; Relevant substances ([8]; 0 day): 1.2%; Moisture content ([8]; 25° C. 3 months, uncovered): 13.4%; Relevant substances ([8]; 25° C. 3 months, uncovered): 1.3%; Moisture content ([8]; 25° C. 30 days, uncovered): 13.1%; Relevant substances ([8]; 25° C. 30 days, uncovered): 1.3%; Crystal form XRPD ([8]; 40° C. 5 days, uncovered): Crystal form I; Moisture content ([8]; 40° C. 5 days, uncovered): 4.5%; Relevant substances ([8]; 40° C. 5 days, uncovered): 1.3%; Crystal form XRPD ([8]; 40° C. 10 days, uncovered): Crystal form I; Moisture content ([8]; 40° C. 10 days, uncovered): 5.6%; Relevant substances ([8]; 40° C. 10 days, uncovered): 1.6%; Crystal form XRPD ([8]; 40° C. 30 days, uncovered): Crystal form I; Moisture content ([8]; 40° C. 30 days, uncovered): 5.3%; Relevant substances ([8]; 40° C. 30 days, uncovered): 3.0%; Crystal form XRPD ([8]; 60° C. 5 days, uncovered): Crystal form I; Moisture content ([8]; 60° C. 5 days, uncovered): 4.4%; Relevant substances ([8]; 60° C. 5 days, uncovered): 1.8%; Crystal form XRPD ([8]; 60° C. 10 days, uncovered): Crystal form I; Moisture content ([8]; 60° C. 10 days, uncovered): 5.3%; Relevant substances ([8]; 60° C. 10 days, uncovered): 2.3%; Moisture content ([8]; Light 5 days, uncovered): 13.2%; Relevant substances ([8]; Light 5 days, uncovered): 1.5%; Moisture content ([8]; Light 10 days, uncovered): 13.3%; Relevant substances ([8]; Light 10 days, uncovered): 1.8%; Moisture content [8, 12]: 13.2%; Relevant substances [8, 12]: 1.3%; Moisture content [8, 13]: 13.3%; Relevant substances [8, 13]: 1.3%; Moisture content [8, 14]: 13.4%; Relevant substances [8, 14]: 1.2%; Moisture content [8, 15]: 13.5%; Relevant substances [8, 15]: 1.3%; Overall stability conclusion ([8]; Table 5 conditions): sensitive to high temperature conditions

Q: With `C=CC(=O)Nc1cc2c(Nc3ccc(F)c(Cl)c3)ncnc2cc1OCC1CC2(CCN(C)CC2)C1` [Crystal form I, N-(4-((3-chloro-4-fluorophenyl)amino)-7-((7-methyl-7-azaspiro[3.5]nonan-2-yl)methoxy)quinazolin-6-yl)acrylamide] as the compound, how does the “Soluble property (descriptive term)” value ([6]; 25° C.) read?
A: slightly soluble, (soluble

Q: What about the solubility ([6]; 25 °C, thermodynamic from solid) of the same compound?
A: 20 mg/mL (≈ 39.2 mM)

Q: What about the solubility ([7]; thermodynamic from solid) of the same compound?
A: 39.1 mg/mL (≈ 76.7 mM)

Q: What about the T1/2 [5] of the same compound?
A: 4.95 h

Q: What about the AUC(0-inf) ([5]; male, beagle, dog, plasma, po) of the same compound?
A: 0.115 µg·h/mL

Q: And the AUC0-t ([5]; male, beagle, dog, plasma, po, read-out: AUC0-t)?
A: 0.112 µg·h/mL

Q: What about the Cmax ([5]; male, beagle, dog, plasma, po, read-out: Cmax) of the same compound?
A: 0.0153 µg/mL

Q: What about the Tmax ([5]; male, dog, plasma, po, read-out: Tmax) of the same compound?
A: 2 h

Q: What about the Content ([9]; 0 day) of the same compound?
A: 100.8%

Q: And the Moisture content ([9]; 0 day)?
A: 3.9%

Q: What about the Relevant substances ([9]; 0 day) of the same compound?
A: 0.15%

Q: What about the pH ([9]; 0 day) of the same compound?
A: 2.8

Q: What about the Content ([9]; 60° C.-covered-1 month) of the same compound?
A: 100.7%

Q: And the Moisture content ([9]; 60° C.-covered-1 month)?
A: 4.4%

Q: And the Relevant substances ([9]; 60° C.-covered-1 month)?
A: 0.20%

Q: What about the pH ([9]; 60° C.-covered-1 month) of the same compound?
A: 2.8

Q: And the Content ([9]; 60° C.-covered-5 days)?
A: 100.9%

Q: And the Moisture content ([9]; 60° C.-covered-5 days)?
A: 4.5%

Q: What about the Relevant substances ([9]; 60° C.-covered-5 days) of the same compound?
A: 0.23%

Q: What about the pH ([9]; 60° C.-covered-5 days) of the same compound?
A: 2.8

Q: What about the Content ([9]; 60° C.-covered-10 days) of the same compound?
A: 100.7%

Q: And the Moisture content ([9]; 60° C.-covered-10 days)?
A: 4.5%

Q: And the Relevant substances ([9]; 60° C.-covered-10 days)?
A: 0.24%

Q: And the pH ([9]; 60° C.-covered-10 days)?
A: 2.7

Q: What about the Overall stability conclusion ([9]; kept under various conditions for 1 month (Tables 3 and 4)) of the same compound?
A: high stability

Q: And the Content ([10]; 0 day)?
A: 100.8%

Q: And the “Moisture content” value ([10]; 0 day)?
A: 3.9%

Q: What about the Relevant substances ([10]; 0 day) of the same compound?
A: 0.15%

Q: And the pH ([10]; 0 day)?
A: 2.8

Q: What about the Content ([10]; 25° C. 1 month) of the same compound?
A: 100.7%

Q: What about the “Moisture content” value ([10]; 25° C. 1 month) of the same compound?
A: 4.2%

Q: And the Relevant substances ([10]; 25° C. 1 month)?
A: 0.18%

Q: What about the pH ([10]; 25° C. 1 month) of the same compound?
A: 2.8

Q: And the Content ([10]; 40° C. 1 month)?
A: 100.9%

Q: What about the “Moisture content” value ([10]; 40° C. 1 month) of the same compound?
A: 4.6%

Q: What about the Relevant substances ([10]; 40° C. 1 month) of the same compound?
A: 0.19%

Q: What about the pH ([10]; 40° C. 1 month) of the same compound?
A: 2.8

Q: And the Content [11]?
A: 100.8%

Q: And the “Moisture content” value [11]?
A: 4.3%

Q: And the Relevant substances [11]?
A: 0.18%

Q: And the pH [11]?
A: 2.8
